Data from patent US20060154243A1 (priority 2003, published 2006).

What was measured:
Assay type in all cases: binding, human
[1] = system: control serum LUMC (pooled serum of ten healthy hospital workers)
[2] = system: serum SARS-yellow
[3] = system: serum SARS-green
[4] = system: serum 6 (individual 6)
[5] = system: serum 1b (individual 1, late serum)
[6] = system: control serum Blood-bank (commercial negative donor pooled serum)
[7] = system: serum 37 (individual 37)
[8] = system: serum London
[9] = system: serum 62 (individual 62)
[10] = system: serum 1a (individual 1, early serum)
[11] = system: serum 2 (individual 2)

Sequence | Control serum LUMC linear peptides [1] | Control serum LUMC looped peptides [1] | Binding of serum SARS-yellow to linear peptides of Orf14 of SARS-CoV TOR2 [2] | Binding of serum SARS-green to linear peptides of Orf14 of SARS-CoV TOR2 [3] | Binding of serum 6 to linear peptides of Orf14 of SARS-CoV TOR2 [4] | Binding of serum 1b to linear peptides of Orf14 of SARS-CoV TOR2 [5] | Control Serum Blood-Bank Looped peptides [6] | Control serum Blood-bank linear peptides [6] | Binding of serum 37 to linear peptides of Orf14 of SARS-CoV TOR2 [7] | Binding of serum London to linear peptides of Orf14 of SARS-CoV TOR2 [8] | Binding of serum 62 to linear peptides of Orf14 of SARS-CoV TOR2 [9] | Binding of serum 1a to linear peptides of Orf14 of SARS-CoV TOR2 [10] | Binding of serum 2 to linear peptides of Orf14 of SARS-CoV TOR2 [11]
AVGEILLLEWLAEVV | 0.8 | 0.8 | 0.5 | 0.3 | 0.5 | 0.5 | 0.8 | 0.5 | 0.7 | 0.6 | 0.6 | 0.6 | 0.5
AVIQEIQLLAAVGEI | 1.4 | 0.5 | 2.3 | 2.5 | 2.0 | 2.4 | 0.5 | 1.8 | 1.7 | 1.7 | 2.1 | 2.1 | 1.7
EAEAAVKPLLAPHHV | 0.4 | 0.6 | 0.2 | 0.4 | 0.4 | 0.3 | 0.7 | 0.4 | 0.5 | 0.6 | 0.4 | 0.5 | 0.7
EILLLEWLAEVVKLP | 0.6 | 0.6 | 0.4 | 0.4 | 0.7 | 0.5 | 0.7 | 0.7 | 0.6 | 0.7 | 0.5 | 0.5 | 0.5
EIQLLAAVGEILLLE | 0.8 | 0.7 | 0.5 | 0.3 | 0.4 | 0.5 | 0.7 | 0.4 | 0.6 | 0.4 | 0.4 | 0.6 | 0.5
EWLAEVVKLPSRYCC | 0.6 | 0.6 | 0.3 | 0.6 | 0.6 | 0.6 | 0.7 | 0.7 | 1.0 | 1.0 | 0.7 | 0.8 | 0.7
GEILLLEWLAEVVKL | 0.5 | 0.5 | 0.3 | 0.3 | 0.5 | 0.4 | 0.5 | 0.6 | 0.6 | 0.6 | 0.5 | 0.5 | 0.4
HHVVAVIQEIQLLAA | 0.4 | 0.4 | 0.4 | 0.2 | 0.4 | 0.4 | 0.5 | 0.4 | 0.5 | 0.4 | 0.3 | 0.4 | 0.4
HVVAVIQEIQLLAAV | 0.5 | 0.4 | 0.4 | 0.1 | 0.4 | 0.4 | 0.6 | 0.4 | 0.6 | 0.4 | 0.3 | 0.5 | 0.5
ILLLEWLAEVVKLPS | 0.5 | 0.6 | 0.3 | 0.1 | 0.5 | 0.4 | 0.7 | 0.6 | 0.6 | 0.5 | 0.4 | 0.5 | 0.5
IQEIQLLAAVGEILL | 0.6 | 0.5 | 0.4 | 0.3 | 0.4 | 0.4 | 0.6 | 0.4 | 0.7 | 0.3 | 0.4 | 0.5 | 0.4
IQLLAAVGEILLLEW | 0.6 | 0.5 | 0.4 | 0.2 | 0.4 | 0.4 | 0.6 | 0.5 | 0.6 | 0.4 | 0.4 | 0.5 | 0.5
KPLLAPHHVVAVIQE | 0.6 | 0.6 | 0.4 | 0.3 | 0.4 | 0.4 | 0.6 | 0.5 | 0.6 | 0.4 | 0.4 | 0.5 | 0.4
LAAVGEILLLEWLAE | 0.6 | 0.7 | 0.6 | 0.5 | 0.5 | 0.5 | 0.7 | 0.4 | 0.7 | 0.6 | 0.5 | 0.6 | 0.5
